# Experimental data taken from paper PMC4240011 (Drug delivery and translational research, 2014).
# Columns and labels:
# [1] = cited from earlier work
# [2] = Equilibrium solubility in SMEDDS formulation; format: physicochemical; conditions: in SMEDDS (Cremophor EL, Carbitol, Captex 355); room temperature overnight
# [3] = cited from earlier work; remark: listed apart in the source
# [4] = system: UGT (curcumin glucuronidation, mouse liver microsomes); assay: Inhibition of curcumin glucuronidation in mouse liver microsomes; format: biochemical; conditions: inhibitor up to 10 μM, curcumin 1 μM
# [5] = Oral pharmacokinetic studies in mice; format: in vivo, mouse; conditions: silibinin 100 mg/kg with curcumin 100 mg/kg in SMEDDS
Solubility [2] [mg/g],SMILES,effect on curcumin glucuronidation / UGT activity (in words) [4],other results
51.5,COc1cc(/C=C/C(=O)CC(=O)/C=C/c2ccc(O)c(OC)c2)ccc1O [Curcumin],–,bioavailability [1]: < 2%; solubility in water [3]: ~ 2 ng/mL
–,"O=C(O[C@@H]1Cc2c(O)cc(O)cc2O[C@@H]1c1cc(O)c(O)c(O)c1)c1cc(O)c(O)c(O)c1 [EGCG, epigallocatechin gallate]",slightly increased UGT activity,–
45.2,"O=C(/C=C/C=C/c1ccc2c(c1)OCO2)N1CCCCC1 [Piperine, piperine]",no inhibitory effect,–
34.4,"O=c1c(O)c(-c2ccc(O)c(O)c2)oc2cc(O)cc(O)c12 [Quercetin, quercetin]",–,–
32.8,"COc1cc(C2Oc3cc([C@H]4Oc5cc(O)cc(O)c5C(=O)[C@@H]4O)ccc3OC2CO)ccc1O (stereo partly shown) [Silibinin, silibinin]",–,time of peak silibinin plasma concentration [5]: 30 min
–,O=C(O)c1ccccc1O [salicylic acid],slightly increased UGT activity,–
